How the values were obtained:
[1] = system: CD4+ T cells; assay type: cell-based, human
Protocol: CD69 and CD25 expression was measured by flow cytometry gating on CD3^+CD4^+ T cells using FITC-labeled antibodies for CD3 (11-0048-42, eBioscience), APC-conjugated CD25 antibodies (17-0259-42, eBioscience), PerCP-labeled antibodies for CD4 (300528, Biolegend), and CD69-V450 (560740, BD Horizon). Staining was performed for 30 min on ice in FACS buffer (PBS, 2% FBS), and samples were analyzed on a BD Biosciences LSRII flow cytometer. Shown are the percentages of positive cells relative to total CD3^+ CD4^+ T cells or median fluorescence intensity (MFI).
FIG. 6, Panel A, the cell surface CD69 and CD25 T cell activation markers were measured by FACS in CD4^+ T cells upon AS1842856 treatment for 24, 48 and 72 h. 10 μg/mLαCD3 and 1 μg/mL αCD28 was used as control. Data is shown as percentage of positive cells and as mean±SD of two biological replicates. FIG. 6, Panel B, depicts the same as in FIG. 6, Panel A, but measuring FOXO1 target genes (IL7R, KLRG1, CD62L) after 48 h of AS1842856 treatment (n=3). […]. Cells were allowed to rest for 6 days before 72 h reactivation was induced with PHA/IL-2 and 10 μg/mL αCD3 and 1 μg/mLαCD28. Data are mean±SEM of at least 3 individual donors. Data represent average SD of 9-13 independent experiments. […] Cell viability was assessed by Trypan Blue exclusion.

[2] = system: HIV LTR; test: Chromatin immunoprecipitation (ChIP) at the HIV LTR in J-Lat cells; assay type: cell-based, HIV-1
Protocol: J-Lat A2 and A72 cells were treated with TNFα (10 ng/ml) for 18 h. Cells were fixed with 1% formaldehyde (v/v) in fixation buffer (1 mM EDTA, 0.5 mM EGTA, 50 mM Hepes, pH 8.0, 100 mM NaCl), and fixation was stopped after 10 min by addition of glycine to 125 mM. The cell membrane was lysed for 15 min on ice (5 mM Pipes, pH 8.0, 85 mM KCl, 0.5% NP40, protease inhibitors). After washing with nuclear swell buffer (25 mM HEPES, pH 7.5, 4 mM KCl, 1 Mm DTT, 0.5% NP-40, 0.5 mM PMSF) and micrococcal nuclease (MNase) digestion buffer (20 mM Tris pH 7.5, 2.5 mM CaCl2), 5 mM NaCl, 1 mM DTT, 0.5% NP-40), the pellet was resuspended in MNase buffer (15 mM Tris-HCl, pH 7.5, 5 mM MgCl2, 1 mM CaCl2), and 25 mM NaCl). Subsequently, samples were incubated with MNase (New England Biolabs) for 10 min at RT. The reaction was quenched with 0.5 M EDTA and incubated on ice for 5 min. Cells were lysed (1% SDS, 10 mM EDTA, 50 mM Tris-HCl, pH 8.1, protease inhibitors), and chromatin DNA was sheared to 200-1000-bp average size through sonication (Ultrasonic Processor CP-130, Cole Parmer). Cellular debris was pelleted, and the supernatant was recovered. Protein A/G Sepharose beads were blocked with single-stranded salmon sperm DNA and BSA, washed and resuspended in immunoprecipitation buffer. Blocked protein A/G Sepharose beads were added to the digested chromatin fractions and rotated at 4° C. for 2 h to preclear chromatin. Lysates were incubated overnight at 4° C. with 5 μg of FOXO1, RelA, histone H4, H4K20me1, H4K20me2, H4K20me3 antibodies, or IgG control. After incubation with protein A/G agarose beads for 2 h and washing three times with low salt buffer (0.1% SDS, 1% Triton X-100, 2 mM EDTA, 20 mM Tris-HCl, pH 8.1, 150 mM NaCl), one time with high salt buffer (0.1% SDS, 1% Triton X-100, 2 mM EDTA, 20 mM Tris-HCl, pH 8.1, 500 mM NaCl) and twice with TE-buffer (1 mM EDTA, 10 mM Tris-HCl, pH 8.1), chromatin was eluted and recovered with Agencourt AMPure XP beads (Beckman Coulter). Bound chromatin and input DNA were treated with RNase H (New England Biolabs) and Proteinase K (Sigma-Aldrich) at 37° C. for 30 min. Immunoprecipitated chromatin was quantified by real-time PCR using the Maxima SYBR Green qPCR Master Mix (Thermo Scientific) and the ABI 7700 Sequence Detection System (Applied Biosystems). The SDS 2.4 software (Applied Biosystems) was used for analysis. The specificity of each PCR reaction was confirmed by melting curve analysis using the Dissociation Curve software (Applied Biosystems). All chromatin immunoprecipitations and qPCRs were repeated at least three times, and representative results were shown.
Because ATF4 can be recruited to the HIV LTR (Jiang, G. et al. Downloaded from. MBio 8, 1518-1534 (2018)) and the related human T-cell leukemia virus type 1 (HTLV-1) Reddy, T. et al. Oncogene 14, 2785-2792 (1997)), chromatin immunoprecipitation (ChIP) experiments were performed to test whether ATF4 binds the HIV LTR in response to FOXO1 inhibition. While low levels of ATF4 bound HIV LTR chromatin in untreated J-Lat cells, its recruitment was 3-fold enriched after AS1842856 treatment (FIG. 9, Panel A). […] The nuclear factor of activated T cells (NFAT) can occupy the NF-κB binding sites in the HIV LTR, and is activated through calcium mobilization after T cell activation rather than protein kinase C activation as for NF-κB. […]

`CCn1cc(C(=O)O)c(=O)c2c(N)c(F)c(NC3CCCCC3)cc21` [AS1842856, 5-amino-7-(cyclohexylamino)-1-ethyl-6-fluoro-4-oxo-1,4-dihydro-quinoline-3-carboxylic acid] was tested, and the “generalized T cell activation (CD69 and CD25 expression)” value [1] was “not observed”, the “NFAT at the HIV LTR” value [2] was “markedly enriched” and the “RNA polymerase II recruitment to the HIV promoter” value [2] was “marked increase”. The “RelA recruitment to the HIV LTR” value [2] was “not recruited” and the “ATF4 recruitment to HIV LTR chromatin” value ([2]; 1000 nM vs untreated) was 3 fold.

— patent US20220193209A1, “COMPOSITIONS AND METHODS FOR REACTIVATING LATENT IMMUNODEFICIENCY VIRUS AND/OR TREATING IMMUNODEFICIENCY VIRUS INFECTION” (The J. David Gladstone institutes, a testamentary trust …, priority 2019, published 2022)
